Common to all, as to assay: relative viability (nuclei count vs DMSO), 5 days (fraction); higher = more cells survive
Compound in assay [1]: C1COCCN1C2=NC(=NC3=C2OC4=C3C=CC=N4)C5=CC(=CC=C5)NC(=O)C6=CN=C(C=C6)N + CCNC(=O)c1noc(-c2cc(C(C)C)c(O)cc2O)c1-c1ccc(CN2CCOCC2)cc1 [Luminespib] (partner 0.01 µM)
Summed up: (§1)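 Dosing by pin tool came one day after lung cancer cell lines were seeded in 1536-well plates, using either one drug or a fixed anchor-drug dose plus five library-drug doses (not always all listed) in √10 steps. After 5 days, nuclei were counted on 4× images. Relative viability is treated-well nuclei count divided by vehicle-well nuclei count, and values are medians of duplicate plates.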

Compound in assay [2]: CN1CCC(CNc2ccc3ncc(-c4cccc(OC(F)(F)F)c4)n3n2)CC1 [SGI-1776] + CS(=O)(=O)CCNCc1ccc(-c2ccc3ncnc(Nc4ccc(OCc5cccc(F)c5)c(Cl)c4)c3c2)o1 [Lapatinib] (partner 2 µM)
Summed up: as §1

Compound in assay [3]: Nc1ccccc1NC(=O)c1ccc(CNC(=O)OCc2cccnc2)cc1 [Entinostat] + COc1cc2c(Oc3ccc(NC(=O)C4(C(=O)Nc5ccc(F)cc5)CC4)cc3F)ccnc2cc1OCCCN1CCOCC1 [Foretinib] (partner 0.25 µM)
The procedure, abridged:
as §1

Compound in assay [4]: Nc1ccccc1NC(=O)c1ccc(CNC(=O)OCc2cccnc2)cc1 [Entinostat] + Cc1nc(NC(=O)N2CCC[C@H]2C(N)=O)sc1-c1ccnc(C(C)(C)C(F)(F)F)c1 [Alpelisib] (partner 2 µM)
The procedure, abridged: as §1

Regarding UMC-11, the relative viability in assay [1] (first compound 0.02 µM) worked out at 1.13; in assay [1] (first compound 0.06325 µM), 1.07; in assay [1] (first compound 0.2 µM) it was 1.02; in assay [1] (first compound 0.6325 µM) it was 1.07; in assay [1] (first compound 2 µM) it was 0.628; in assay [2] (first compound 0.08 µM), 0.907. The relative viability came to 1.12 in assay [2] (first compound 0.8 µM); 1.11 in assay [2] (first compound 2.53 µM); 0.644 in assay [2] (first compound 8 µM); 1.22 in assay [3] (first compound 0.02 µM); 1.08 in assay [3] (first compound 0.06325 µM); 0.834 in assay [3] (first compound 0.2 µM). The relative viability in assay [3] (first compound 0.6325 µM) was determined as 0.273; in assay [3] (first compound 2 µM), 0.201; in assay [4] (first compound 0.02 µM) it was 1.12; in assay [4] (first compound 0.06325 µM), 1.01; in assay [4] (first compound 0.2 µM) it was 0.702; in assay [4] (first compound 0.6325 µM), 0.168. In addition, the relative viability in assay [4] (first compound 2 µM) is 0.116.

For the origin of these results see the supplement of paper PMC10307832.
